Test results reported in PubChem BioAssay AID2060337 (Molecular Pharmacology Branch, DTP, NCI, 2025).

System: 832693-133-R-J1-PDC multi-cell spheroids, viability
Assay: Anticancer human tumor 832693-133-R-J1-PDC patient-derived head and neck squamous carcinoma cell line growth inhibition [IpAb]
Conditions: for IC50: curve of first compound; for viability, T/C: stronger effect = lower value
How it was run: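 Spheroids of 60% malignant cells, 25% HUVEC and 15% MSC were exposed to targeted agents combined with ipatasertib or abemaciclib. Doses started at or near clinical Cmax (10 microM when unknown) and fell in half-log steps.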

[1] = second compound 0.01 µM, first compound 0.00316 µM
[2] = second compound 0.01 µM, first compound 0.01 µM
[3] = second compound 0.01 µM, first compound 0.0316 µM
[4] = second compound 0.01 µM, first compound 0.1 µM
[5] = second compound 0.0316 µM, first compound 0.00316 µM
[6] = second compound 0.0316 µM, first compound 0.01 µM
[7] = second compound 0.0316 µM, first compound 0.0316 µM
[8] = second compound 0.0316 µM, first compound 0.1 µM
[9] = second compound 0.1 µM, first compound 0.00316 µM
[10] = second compound 0.1 µM, first compound 0.01 µM
[11] = second compound 0.1 µM, first compound 0.0316 µM
[12] = second compound 0.1 µM, first compound 0.1 µM
[13] = second compound 0.316 µM, first compound 0.00316 µM
[14] = second compound 0.316 µM, first compound 0.01 µM
[15] = second compound 0.316 µM, first compound 0.0316 µM
[16] = second compound 0.316 µM, first compound 0.1 µM
[17] = second compound 1 µM, first compound 0.00316 µM
[18] = second compound 1 µM, first compound 0.01 µM
[19] = second compound 1 µM, first compound 0.0316 µM
[20] = second compound 1 µM, first compound 0.1 µM
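Note: spheroids exposed to the drugs for one week before the viability readout.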
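Throughout, for viability, T/C: 100% = DMSO vehicle control wells.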

CC(C)n1nc(-c2ccc3oc(N)nc3c2)c2c(N)ncnc21 + CCN1CCN(Cc2ccc(Nc3ncc(F)c(-c4cc(F)c5nc(C)n(C(C)C)c5c4)n3)nc2)CC1
IC50 (second compound 0.01 µM): > 100 nM | IC50 (second compound 0.0316 µM): 36.3 nM | IC50 (second compound 0.1 µM): 10.6 nM | IC50 (second compound 0.316 µM): 2.03 nM | IC50 (second compound 1 µM): 0.859 nM | viability, T/C (second compound 0.01 µM, first compound 0.000316 µM): 83% | viability, T/C (second compound 0.01 µM, first compound 0.001 µM): 82.8% | viability, T/C [1]: 73.5% | viability, T/C [2]: 77.8% | viability, T/C [3]: 50.6% | viability, T/C [4]: 53.2% | viability, T/C (second compound 0.0316 µM, first compound 0.000316 µM): 71.8% | viability, T/C (second compound 0.0316 µM, first compound 0.001 µM): 73.6% | viability, T/C [5]: 64% | viability, T/C [6]: 61% | viability, T/C [7]: 52.4% | viability, T/C [8]: 38.4% | viability, T/C (second compound 0.1 µM, first compound 0.000316 µM): 61% | viability, T/C (second compound 0.1 µM, first compound 0.001 µM): 56% | viability, T/C [9]: 52.7% | viability, T/C [10]: 53% | viability, T/C [11]: 43% | viability, T/C [12]: 34.5% | viability, T/C (second compound 0.316 µM, first compound 0.000316 µM): 50.6% | viability, T/C (second compound 0.316 µM, first compound 0.001 µM): 55.7% | viability, T/C [13]: 49% | viability, T/C [14]: 42.3% | viability, T/C [15]: 42.9% | viability, T/C [16]: 34.8% | viability, T/C (second compound 1 µM, first compound 0.000316 µM): 59.5% | viability, T/C (second compound 1 µM, first compound 0.001 µM): 50.3% | viability, T/C [17]: 41.6% | viability, T/C [18]: 38.2% | viability, T/C [19]: 39.8% | viability, T/C [20]: 38.6%

COc1c(OCCCN2CCOCC2)ccc2c3n(c(=NC(=O)c4cnc(N)nc4)nc12)CCN3 + CCN1CCN(Cc2ccc(Nc3ncc(F)c(-c4cc(F)c5nc(C)n(C(C)C)c5c4)n3)nc2)CC1
IC50 (second compound 0.01 µM): 14.4 nM | IC50 (second compound 0.0316 µM): 11.2 nM | IC50 (second compound 0.1 µM): 7.16 nM | IC50 (second compound 0.316 µM): 4.44 nM | IC50 (second compound 1 µM): 6.11 nM | viability, T/C [1]: 89.4% | viability, T/C [2]: 61.8% | viability, T/C [3]: 24.7% | viability, T/C [4]: 7.08% | viability, T/C (second compound 0.01 µM, first compound 0.316 µM): 3.46% | viability, T/C (second compound 0.01 µM, first compound 1 µM): 5.82% | viability, T/C [5]: 74.2% | viability, T/C [6]: 52.7% | viability, T/C [7]: 23.4% | viability, T/C [8]: 5.88% | viability, T/C (second compound 0.0316 µM, first compound 0.316 µM): 3% | viability, T/C (second compound 0.0316 µM, first compound 1 µM): 2.63% | viability, T/C [9]: 60.1% | viability, T/C [10]: 45.6% | viability, T/C [11]: 22.1% | viability, T/C [12]: 6.68% | viability, T/C (second compound 0.1 µM, first compound 0.316 µM): 3.33% | viability, T/C (second compound 0.1 µM, first compound 1 µM): 3.51% | viability, T/C [13]: 53.8% | viability, T/C [14]: 40.8% | viability, T/C [15]: 21.5% | viability, T/C [16]: 9.72% | viability, T/C (second compound 0.316 µM, first compound 0.316 µM): 6.61% | viability, T/C (second compound 0.316 µM, first compound 1 µM): 6.55% | viability, T/C [17]: 53.2% | viability, T/C [18]: 47.7% | viability, T/C [19]: 23.4% | viability, T/C [20]: 16.2% | viability, T/C (second compound 1 µM, first compound 0.316 µM): 12% | viability, T/C (second compound 1 µM, first compound 1 µM): 14.8%
